Here are results for eight compounds from US4288432A, “Novel enkephalin analogs and process for the preparation thereof” (Richter Gedeon Vegyeszeti Gyar Rt., priority 1979, dated 1981).

Common to all, as to assay type: cell-based
Test [1] has as its system guinea-pig ileum (GPI). The test can be described thus: GPI assay according to Kosterlitz and Watt (opiate activity). Particulars: guinea-pig ileum preparation; assay of Kosterlitz and Watt 1968; relative to normorphine = 1.0. The source says: (§1) 39, 398 (1970)] and in mouse ves deferens (MVD) preparations [J. Hughes et al.: Br. J. Pharmacol. 53, 371 (1975)]. […] The figures represent the activities of compounds relative to […] (the activity of normorphine is taken as unity=1.0).
^a GPI assay according to Kosterlitz and Watt [Br.J. Pharmacol. 33,

In test [2] the test system is guinea-pig ileum (GPI). In words: GPI assay according to Kosterlitz et al. (opiate activity). As to conditions: guinea-pig ileum preparation; assay of Kosterlitz et al. 1970; relative to normorphine = 1.0.
Source text: as §1
^b GPI assay according to Kosterlitz et al. [Br. J. Pharmacol. 39, 39

The test system of another test is mouse vas deferens (MVD). In words: MVD assay according to Hughes et al. (opiate activity). Particulars: mouse vas deferens preparation; assay of Hughes et al. 1975; relative to normorphine = 1.0.
Source text: as §1
^c MVD assay according to Hughes et al. [Br. J. Pharmacol. 53, 371

Structures are written as SMILES. Non-standard residues stand in square brackets, D forms with d. Residues, ends and D or L forms follow the SMILES beside them. *: point of attachment. Tyr(Nα-amidino) = N=C(N)N[C@@H](Cc1ccc(O)cc1)C(=O)*; dNle = CCCC[C@@H](N)C(=O)O

Take `CC(=O)O.CCCC[C@@H](NC(=O)[C@@H](N)Cc1ccc(O)cc1)C(=O)NCC(=O)N[C@@H](Cc1ccccc1)C(N)=O.O` [H-Tyr-D-Nle-Gly-Phe-NH2, L-Tyrosyl-D-norleucyl-glycyl-L-phenylalanine amide acetate hydrate] (H-Y[dNle]GF-NH2): the “Opiate activity GPI^a (opiate activity of normorphine = 1.0)” value with guinea-pig ileum (GPI) [1] turned out to be 22. In addition, the “Opiate activity GPI^b (opiate activity of normorphine = 1.0)” value (“Opiate activity GPI^b” for short) in the test with guinea-pig ileum (GPI) [2] worked out at 22. In the test with mouse vas deferens (MVD), the “Opiate activity MVD^c (opiate activity of normorphine = 1.0)” value (“Opiate activity MVD^c” below) was 8.
Regarding `CC(=O)O.CCCC[C@@H](NC(=O)[C@@H](N)Cc1ccc(O)cc1)C(=O)NCC(=O)N[C@@H](Cc1ccccc1)C(=O)N1CCC[C@H]1C(N)=O.O` [H-Tyr-D-Nle-Gly-Phe-Pro-NH2, L-Tyrosyl-D-norleucyl-glycyl-L-phenylalanyl-L-proline amide acetate hydrate] (H-Y[dNle]GFP-NH2), the “Opiate activity GPI^a (opiate activity of normorphine = 1.0)” value in the test with guinea-pig ileum (GPI) [1] was determined as 12. The “Opiate activity GPI^b” value in the test with guinea-pig ileum (GPI) [2] was 12. The “Opiate activity MVD^c” value in the test with mouse vas deferens (MVD) is 10.
In the case of `CC(=O)O.CSCC[C@@H](NC(=O)[C@@H](N)Cc1ccc(O)cc1)C(=O)NCC(=O)N[C@@H](Cc1ccccc1)C(N)=O.O` [H-Tyr-D-Met-Gly-Phe-NH2, L-Tyrosyl-D-methionyl-glycyl-L-phenylalanine amide acetate hydrate] (H-Y[dM]GF-NH2), the “Opiate activity GPI^a (opiate activity of normorphine = 1.0)” value with guinea-pig ileum (GPI) [1] stood at 17. The “Opiate activity GPI^b” value in the test on guinea-pig ileum (GPI) [2] was 17. For the same compound, the “Opiate activity MVD^c” value in the test on mouse vas deferens (MVD) is listed as 4.
Regarding `CC(=O)O.CSCC[C@@H](NC(=O)[C@@H](N)Cc1ccc(O)cc1)C(=O)NCC(=O)N[C@@H](Cc1ccccc1)C(=O)N1CCC[C@H]1C(N)=O.O.O.O` [H-Tyr-D-Met-Gly-Phe-Pro-NH2, L-tyrosyl-D-methionyl-glycyl-L-phenylalanyl-proline amide acetate trihydrate] (H-Y[dM]GFP-NH2), in the test on guinea-pig ileum (GPI) [1], the “Opiate activity GPI^a (opiate activity of normorphine = 1.0)” value came out at 8. In the test with guinea-pig ileum (GPI) [2], the “Opiate activity GPI^b” value amounted to 8. For the same compound, the “Opiate activity MVD^c” value with mouse vas deferens (MVD) amounted to 8.
As to `CCCC[C@@H](NC(=O)[C@H](Cc1ccc(O)cc1)NC(=N)N)C(=O)NCC(=O)N[C@@H](Cc1ccccc1)C(=O)N1CCC[C@H]1C(N)=O` [H2 N-C-(NH)-Tyr-D-Nle-Gly-Phe-Pro-NH2, amidino-L-tyrosyl-D-norleucyl-glycyl-L-phenylalanyl-L-proline amide] ({Tyr(Nα-amidino)}-[dNle]GFP-NH2), the “Opiate activity GPI^a (opiate activity of normorphine = 1.0)” value in the test with guinea-pig ileum (GPI) [1] was 79. In the test with guinea-pig ileum (GPI) [2], the “Opiate activity GPI^b” value is 21. The “Opiate activity MVD^c” value with mouse vas deferens (MVD) was found to be 17.
Taken in the same sequence, the figures for `CSCC[C@@H](NC(=O)[C@H](Cc1ccc(O)cc1)NC(=N)N)C(=O)NCC(=O)N[C@@H](Cc1ccccc1)C(=O)N1CCC[C@H]1C(N)=O` [H2 N-C-(NH)-Tyr-D-Met-Gly-Phe-Pro-NH2, amidino-L-tyrosyl-D-methionyl-glycyl-L-phenylalanyl-L-proline amide] ({Tyr(Nα-amidino)}-[dM]GFP-NH2) were 825, 173 and 25.
In the same order, the values of `CSCC[C@@H](NC(=O)[C@H](Cc1ccc(O)cc1)NC(=N)N)C(=O)NCC(=O)N[C@@H](Cc1ccccc1)C(N)=O` [H2 N-C-(NH)-Tyr-D-Met-Gly-Phe-NH2, amidino-L-tyrosyl-D-methionyl-glycyl-L-phenylalanine amide] are 211, 79 and 21.
Taken in the same sequence, the figures for `CCCC[C@@H](NC(=O)[C@H](Cc1ccc(O)cc1)NC(=N)N)C(=O)NCC(=O)N[C@@H](Cc1ccccc1)C(N)=O` [H2 N-C-(NH)-Tyr-D-Nle-Gly-Phe-NH2, amidino-L-tyrosyl-D-norleucyl-glycyl-L-phenylalanine amide] were 126, 79 and 18.
